Source: patent US4606911A, “Pharmaceutical composition for the prevention of dental caries” (Rohto Pharmaceutical Co. Ltd., priority 1984, dated 1986)
In brackets after ≈: the same amount, converted by molar mass. Entries after “also recorded” stand apart in the source; their conditions may differ.

Legend:
Assay type in all cases: cell-based
bacterial cells = assay: Adherence of bacterial cells to the surface of an extracted tooth; conditions: extracted tooth suspended in a culture medium containing sucrose
[1] = system: Streptococcus mutans OMZ 176; assay: Antibacterial activity (MIC, growth in BHI medium); design: key to Antibacterial activity (growth): -: grow; ±: slightly grow; +: not grow
Protocol: To a test tube was charged 3.8 ml of Brain Heart Infusion (BHI) medium, and 100 μl of a sample solution containing oleanolic, ursolic or glycyrrhetic acid and 100 μl of pre-incubated culture of bacterium selected from those listed below were added thereto. The mixture was incubated at 37° C. and then allowed to stand over night. The extent of the growth of bacterium was observed after two or five days.
Streptococcus mutans OMZ 176

[2] = system: Streptococcus salivarius ATCC 9222; assay: Antibacterial activity (MIC, growth in BHI medium); design: key to Antibacterial activity (growth): -: grow; ±: slightly grow; +: not grow
Protocol: To a test tube was charged 3.8 ml of Brain Heart Infusion (BHI) medium, and 100 μl of a sample solution containing oleanolic, ursolic or glycyrrhetic acid and 100 μl of pre-incubated culture of bacterium selected from those listed below were added thereto. The mixture was incubated at 37° C. and then allowed to stand over night. The extent of the growth of bacterium was observed after two or five days. The MIC value was determined for each sample and summarized in Table 2. |Streptococcus salivarius ATCC 9222

[3] = system: Bacillus megaterium QM B1551; assay: Antibacterial activity (MIC, growth in BHI medium); design: key to Antibacterial activity (growth): -: grow; ±: slightly grow; +: not grow
Protocol: To a test tube was charged 3.8 ml of Brain Heart Infusion (BHI) medium, and 100 μl of a sample solution containing oleanolic, ursolic or glycyrrhetic acid and 100 μl of pre-incubated culture of bacterium selected from those listed below were added thereto. The mixture was incubated at 37° C. and then allowed to stand over night. The extent of the growth of bacterium was observed after two or five days. The MIC value was determined for each sample and summarized in Table 2. |Bacillus megaterium QM B1551

[4] = system: S. mutans OMZ 176 (serotype d); assay: microbe, parasite or virus in culture
Protocol: The adherence-inhibiting activity of the triterpenes of the formula (I) was measured using an inner wall of a test tube in place of the surface of a tooth.
To 2.9 ml of BHI medium containing 5% sucrose in a test tube (i) are added 30 μl of a sample solution prepared by dissolving a compound of: the formula (I) in H2 O or dimethylsulfoxide (DMSO) and 100 μl of culture medium containing S. mutans OMZ 176 (serotype d) which was preincuvated at 37° C. for 24 hours in BHI medium, and the mixture is incubated at 37° C. for 20 hours, with the test tube being maintained at a slant of 30°. The test tube is revolved gently two or three times and the supernatant is transferred to another test tube (ii). To the first test tube (i) is added 3 ml of 50 mM phosphate buffer (pH 7.5), and the test tube is gently revolved two or three times. The resultant supernatant is transferred to the third test tube (iii). The test tubes (ii) and (iii) are each centrifuged and respective supernatants are discarded. To each of the test tubes (i), (ii) and (iii) is added 3 ml of 0.5M NaOH, and the test tubes are shaken to suspend bacterial cells. Absorbance of the resulting suspension is measured at 660 nm. The absorbances obtained with respect to the test tube (i), (ii) and (iii) are represented by Ab(i), Ab(ii) and Ab(iii), respectively. Ab(i) reflects the amount of the bacterial cells adhered to the wall of the test tube and Ab(ii) and Ab(iii) correspond to the amount of the bacterial cells not adhered to the wall.
The same procedure is repeated using 30 μl of distilled water or DMSO in place of the sample solution to obtain a control. The absorbance of the control is represented by Ab(Cont.).
Adherence percentage of bacteria is calculated from the following equation. [formula]
Adherence inhibitory percentage (AIP) is calculated using the adherence percentage according to the following equation. [formula]
The magnitude of adherence-inhibiting activity of each of the samples is shown, in Table 3, by the use of the following symbols: […]

[5] = Streptococcus mutans, read-out: Adherence-inhibiting activity (AIP)

Structure (SMILES): C[C@H]1[C@H](C)CC[C@]2(C(=O)O)CC[C@]3(C)C(=CC[C@@H]4[C@@]5(C)CC[C@H](O)C(C)(C)[C@@H]5CC[C@]43C)[C@H]12 [Ursolic acid]
- adherence of bacterial cells to the surface of an extracted tooth (bacterial cells): completely inhibited
- antibacterial activity to S. mutans (in words) [1]: also exhibit the selective activity on S. mutans, although the magnitude of the activity is each less than that of glycyrrthetic acid; also recorded: have both of the adherence-inhibiting activity and the selective antibacterial activity to S. mutans; also recorded: have both activities
- Antibacterial activity (growth) ([1]; 10 μg/ml): -
- antibacterial activity at 10 μg/ml (in words) ([1]; 10 μg/ml): ineffective for exhibiting antibacterial activity
- Antibacterial activity (growth) ([1]; 25 μg/ml): -
- Antibacterial activity (growth) ([1]; 50 μg/ml): +
- Antibacterial activity (growth) ([1]; 100 μg/ml): +
- Antibacterial activity (growth) ([1]; 200 μg/ml): +
- Antibacterial activity (growth) ([1]; 400 μg/ml): +
- MIC ([1]; Streptococcus mutans, OMZ176, Streptococcus mutans OMZ 176, BHI, 37° C., read-out: MIC (minimum inhibitory concentration)): 25 µg/mL (≈ 54.7 µM)
- Antibacterial activity (growth) ([2]; 10 μg/ml): -
- Antibacterial activity (growth) ([2]; 25 μg/ml): -
- Antibacterial activity (growth) ([2]; 50 μg/ml): +
- Antibacterial activity (growth) ([2]; 100 μg/ml): +
- Antibacterial activity (growth) ([2]; 200 μg/ml): +
- Antibacterial activity (growth) ([2]; 400 μg/ml): +
- MIC ([2]; ATCC9222, Streptococcus salivarius, BHI, 37° C., read-out: MIC (minimum inhibitory concentration)): 25 µg/mL (≈ 54.7 µM)
- Antibacterial activity (growth) ([3]; 10 μg/ml): -
- Antibacterial activity (growth) ([3]; 25 μg/ml): -
- Antibacterial activity (growth) ([3]; 50 μg/ml): -
- Antibacterial activity (growth) ([3]; 100 μg/ml): -
- Antibacterial activity (growth) ([3]; 200 μg/ml): -
- Antibacterial activity (growth) ([3]; 400 μg/ml): -
- MIC ([3]; Priestia megaterium, QMB1551, Bacillus megaterium, BHI, 37° C., read-out: MIC (minimum inhibitory concentration)): > 200 µg/mL
- adherence-inhibiting activity (in words) [4]: have both of the adherence-inhibiting activity and the selective antibacterial activity to S. mutans; also recorded: have both activities
- minimal effective concentration ([4]; Streptococcus mutans, 20 h, read-out: concentration at which adherence of the bacterial cells is inhibited): 10 µg/mL
- inhibition at 10 µg/mL [4, 5]: > 50%
- inhibition at 20 µg/mL [4, 5]: > 50%
- inhibition at 30 µg/mL [4, 5]: > 50%
- inhibition at 50 µg/mL [4, 5]: > 50%
- inhibition at 100 µg/mL [4, 5]: > 50%
